Patent US9226912B2, “Acetyltanshinone IIA (ATA) as anticancer agent” (Nanyang Technological University, priority 2011, dated 2016)

How the values were obtained:
SK-BR-3 = test: IC50 and LC50 of ATA at 48 h; assay type: cell-based; settings: Homo sapiens, SK-BR-3 breast cancer
[1] = test system: Bax and cytochrome c in MDA-MB-435 cells; test: Bax translocation and cytochrome c release, cell fractionation Western blot and immunofluorescence; assay type: cell-based, human; settings: 5 μM ATA, 24 h, normalized to control 1.0
Description: The concentration of ATA and PG were 5 μM and 20 μM, respectively. […] Scale bar=10 μm.
The value of CY/MT represents the ratio of integrated band intensity of cytosol fraction (CY) over corresponding integrated band intensity of mitochondrial fraction (MT). The ratio was normalized by the control group. Two proteins were used as internal markers to judge the quality of cell fractionation experiment: Cox IV for mitochondria and β-tubulin mainly for cytosol.
The subcellular localization changes of Bax and cytochrome c during ATA-induced apoptosis were first examined using immunofluorescence staining.
It was further tested, whether PG could prevent ROS generation after ATA treatment.

ERα in MCF-7 cells = target: T1, ERα in MCF-7 cells (Homo sapiens, UniProt P03372); test: ERα protein level by immunostaining and Western blot; assay type: cell-based
T1 construct: endogenous in cells; host or cells: MCF-7 human breast cancer cells
T1 sequence (P03372 1-595): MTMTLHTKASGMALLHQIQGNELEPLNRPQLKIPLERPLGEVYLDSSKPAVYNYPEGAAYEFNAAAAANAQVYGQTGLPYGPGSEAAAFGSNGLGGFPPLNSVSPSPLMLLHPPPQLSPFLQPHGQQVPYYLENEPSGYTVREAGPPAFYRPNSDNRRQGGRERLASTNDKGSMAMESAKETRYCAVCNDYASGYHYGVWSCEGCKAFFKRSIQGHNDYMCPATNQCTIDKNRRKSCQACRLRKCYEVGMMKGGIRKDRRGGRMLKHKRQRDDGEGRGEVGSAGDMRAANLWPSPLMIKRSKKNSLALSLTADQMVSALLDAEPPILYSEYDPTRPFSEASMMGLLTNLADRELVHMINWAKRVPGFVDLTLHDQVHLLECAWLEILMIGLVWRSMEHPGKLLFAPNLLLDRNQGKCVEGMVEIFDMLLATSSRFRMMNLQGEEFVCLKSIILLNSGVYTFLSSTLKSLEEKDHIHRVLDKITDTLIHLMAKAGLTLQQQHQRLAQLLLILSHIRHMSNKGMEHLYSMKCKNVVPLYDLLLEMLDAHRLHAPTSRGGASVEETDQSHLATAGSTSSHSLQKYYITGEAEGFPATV
Description: (B) Western blot analysis of ERα levels in normal medium-cultured MCF-7 cells at different times with 6 μM ATA treatment.
Thus, immunostaining was used to exam the protein level of ERα in MCF-7 cells after ATA treatment. It was observed that ERα was mainly localized in the nucleus (FIG. 6A) in the control cells, which had been cultured in the charcoal-stripped medium for 4 days.
Subsequently, Western blot analysis was used to confirm this prediction. […] To ensure that ATA produced a similar effect in the MCF-7 cells under a physiological condition, Western blotting was used to determine the protein level of ERα in normal medium-cultured MCF-7 cells with or without ATA treatment.

ESR1 mRNA in MCF-7 cells = test: Real-time PCR of ESR1 mRNA level; settings: 100 pM estrogen plus 6 μM compound
Description: MCF-7 cells cultured in the charcoal-stripped medium were used as control for the 0 h sample.

[2] = 6 μM ATA, 3 h, charcoal-stripped medium, immunostaining

## CC(=O)Oc1c(OC(C)=O)c2c(C)coc2c2ccc3c(c12)CCCC3(C)C [ATA, 1,6,6-trimethyl-8,9-dihydro-10,11-diacetoxyl-7H-naphtho[1,2-g][1]benzofuran]
SK-BR-3
  IC50: 290 nM
SK-BR-3; kill 50% of the cells
  CC50: 5100 ± 1920 nM
[1]
  ratio of Bax level in the cytosol to that in the mitochondria: < 0.1
  ratio of cytochrome c level in cytosol to that in mitochondria: 7.5
ERα in MCF-7 cells; 6 μM ATA, 24 and 48 h, normal medium, Western blot
  ERα protein level: significantly decreased
ERα in MCF-7 cells; [2]
  ERα fluorescence intensity in the cytosol: remained unchanged
  level of ERα in the nucleus: greatly reduced
ERα in MCF-7 cells; 4 h, charcoal-stripped medium, Western blot
  total protein level of ERα: slightly reduced
ERα in MCF-7 cells; after 8 h, charcoal-stripped medium, Western blot
  total protein level of ERα: significantly reduced
ESR1 mRNA in MCF-7 cells; 12 h, charcoal-stripped medium
  level of ESR1 mRNA over control: 55%
ESR1 mRNA in MCF-7 cells; 24 h, charcoal-stripped medium
  level of ESR1 mRNA over control: 31%
ESR1 mRNA in MCF-7 cells; 24 h, normal medium
  level of ESR1 mRNA over control: about 30%
ESR1 mRNA in MCF-7 cells; 36 h and 48 h, charcoal-stripped medium
  level of ESR1 mRNA over control: about 50%
